These results are taken from patent US7078428B2, “Isoindolone derivatives, preparation process and intermediates of this process, their use as medicaments, and pharmaceutical compositions comprising them” (Sanofi-Aventis Deutschland GmbH, priority 2002, dated 2006).

As a reminder, the IC50 is the concentration at which inhibition is half-maximal.

Structures can show the parent of a compound that is named as a salt.

T1 sequence (P19634 whole entry, species assumed): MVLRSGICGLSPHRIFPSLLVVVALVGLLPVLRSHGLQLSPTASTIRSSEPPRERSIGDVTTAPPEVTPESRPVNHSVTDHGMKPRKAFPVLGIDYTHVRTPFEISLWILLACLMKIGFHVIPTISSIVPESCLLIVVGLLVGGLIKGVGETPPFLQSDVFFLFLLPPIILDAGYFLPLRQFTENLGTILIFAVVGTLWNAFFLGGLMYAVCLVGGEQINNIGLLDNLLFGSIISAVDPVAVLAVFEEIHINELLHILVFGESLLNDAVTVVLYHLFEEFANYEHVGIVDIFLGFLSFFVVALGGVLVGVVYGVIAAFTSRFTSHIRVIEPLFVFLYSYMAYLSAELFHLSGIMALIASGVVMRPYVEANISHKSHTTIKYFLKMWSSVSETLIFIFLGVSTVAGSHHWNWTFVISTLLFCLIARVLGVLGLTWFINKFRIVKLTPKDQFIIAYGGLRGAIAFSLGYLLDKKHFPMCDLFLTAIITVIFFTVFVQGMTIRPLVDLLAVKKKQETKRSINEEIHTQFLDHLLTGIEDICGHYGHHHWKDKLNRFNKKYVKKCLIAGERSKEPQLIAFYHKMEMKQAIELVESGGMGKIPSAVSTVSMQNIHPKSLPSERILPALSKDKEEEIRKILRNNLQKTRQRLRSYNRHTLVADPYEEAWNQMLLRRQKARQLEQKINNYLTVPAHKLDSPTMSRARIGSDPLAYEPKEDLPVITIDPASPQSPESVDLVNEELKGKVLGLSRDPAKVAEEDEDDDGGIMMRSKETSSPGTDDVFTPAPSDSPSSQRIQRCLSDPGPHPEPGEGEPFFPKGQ

This experiment addresses T1, NHE1 (Homo sapiens, UniProt P19634).
T1 construct: expressed in transfected cells
Put plainly: NHE inhibition FLIPR test (intracellular pH recovery, BCECF) in transfected LAP-1 cells. Type of experiment: cell-based. Conditions: transfected cell line (parental LAP-1) expressing the NHE-1 subtype, pHi recovery after acidification. The protocol: The NHE inhibitory activities (IC50 values) of the compounds according to the invention were determined by a FLIPR test.
The test is performed in the FLIPR (Fluorescent Imaging Plate Reader) equipped with clear-bottomed and black-walled 96-well microtitration plates.
The growth medium for the transfected cells (Iscove +10% foetal calf serum) also comprises G418 as selection antibiotic to ensure the presence of transfected sequences.
The actual test begins by eliminating the growth medium and adding 100 μl of loading buffer per well (5 μM of BCECF-AM [2′,7′-bis(2-carboxyethyl)-5-(6)-carboxyfluoresceine acetoxymethyl ester] in 20 mM of NH4Cl, 115 mM of choline chloride, 1 mM of CaCl2, 5 mM of KCl, 20 mM of HEPES and 5 mM of glucose; pH 7.4 (adjusted with KOH). The cells are then incubated for 20 minutes at 37° C. This incubation results in the loading of the fluorescent dye into the cells, the fluorescence intensity of which depends on the pHi, and on the NH4Cl, which results in a slight basification of the cells.
The precursor BCECF-AM, a non-fluorescent dye, is, as an ester, capable of crossing the membrane. The actual dye, which is incapable of crossing the membrane, is released inside the cell by esterases.
After this 20-minute incubation, the loading buffer, which comprises NH4Cl and free BCECF-AM, is removed by washing three times in the cell washing device (Tecan Columbus), each wash being performed with 400 μl of washing buffer (133.8 mM of choline chloride, 4.7 mM of KCl, 1.25 mM of MgCl2, 1.25 mM of CaCl2, 0.97 mM of K2HPO4, 0.23 mM of KH2PO4, 5 mM of HEPES and 5 mM of glucose; pH 7.4 (adjusted with KOH)). The residual volume remaining in the wells is 90 μl (possibly between 50 and 125 μl). This washing step removes the free BCECF-AM and results in an intracellular acidification (pHi of 6.3-6.4) due to the removal of the external ammonium ions.
As the equilibrium of the intracellular ammonium with the aqueous ammonia and the protons, by removal of the extracellular ammonium and by the subsequent immediate crossing of the aqueous ammonia across the cell membrane, is disrupted, the washing process results in intracellular protons remaining, which is the cause of the intracellular acidification. This acidification can result finally in the death of the cells if it lasts long enough. It is important here for the washing buffer to be free of sodium (<1 mM), otherwise the extracellular sodium ions would result in an immediate increase in the pHi on account of the activity of the cloned NHE isoforms. It is also important for all the buffers used (loading buffer, washing buffer and regeneration buffer) not to contain any HCO3-ions, otherwise the presence of bicarbonate would result in the activation of bicarbonate-dependent systems that disrupt the pHi regulation, which systems are contained in the LAP-1 parental cell line.
The microtiter plates containing acidified cells are then transferred (up to 20 minutes after the acidification) to the FLIPR. In the FLIPR, the intracellular fluorescent dye is activated with light of a wavelength of 488 nm, which is generated by an argon laser, and the measuring parameters (laser power, illumination time and diaphragm of the […] camera integrated into the FLIPR) are chosen such that the average value of the fluorescent signal per well is between 30,000 and 35,000 relative fluorescence units.
The actual measurement in the FLIPR starts with a photograph being taken by the CCD camera every two seconds under software control. After 10 seconds, the increase in the intracellular pH is initiated by adding 90 μl of regeneration buffer (133.8 mM of NaCl, 4.7 mM of KCl, 1.25 mM of MgCl2, 1.25 mM of CaCl2, 0.97 mM of K2HPO4, 0.23 mM of KH2PO4, 10 mM of HEPES and 5 mM of glucose; pH 7.4 (adjusted with NaOH)) using a 96-well pipette device incorporated into the FLIPR. Some wells, to which is added pure regeneration buffer, serve as positive controls (100% NHE activity). […]
As to `NC(N)=NC(=O)CC1c2ccc(C(F)(F)F)cc2C(=O)N1CC(F)(F)F` (single isomer, unassigned) [Example 47b], the half-maximal inhibitory concentration (IC50) was found to be 5790 nM.
The value for `NC(N)=NC(=O)CC1c2cc(C(F)(F)F)ccc2C(=O)N1CC(F)(F)F` (single isomer, unassigned) [Example 48, N-{2-[3-Oxo-2-(2,2,2-trifluoro-ethyl)-6-trifluoromethyl-2,3-dihydro-1H-isoindol-1-yl]-acetyl}-guanidine hydrogen fumarate] was 0.2 nM; that for `[H]/N=C(\N)NC(=O)CC1c2cc(S(C)(=O)=O)ccc2C(=O)N1CC(F)(F)F` [Example 36, (R)-N-{2-[6-Methanesulfonyl-3-oxo-2-(2,2,2-trifluoro-ethyl)-2,3-dihydro-1H-isoindol-1-yl]-acetyl}-quanidine and (S)-N-{2-[6-Methanesulfonyl-3-oxo-2-(2,2,2-trifluoro-ethyl)-2,3-dihydro-1H-isoindol-1-yl]-acetyl}-quanidine] was 31 nM.
As for `NC(N)=NC(=O)CC1c2cc(C(F)(F)F)ccc2C(=O)N1CCC(F)(F)F` (single isomer, unassigned) [Example 51b], the IC50 was 171 nM.
For the compound `[H]/N=C(\N)NC(=O)CC1c2cc(Cl)c(Cl)cc2C(=O)N1CC1CC1` (single isomer, unassigned) [Example 42a], the IC50 turned out to be 66 nM.
Consider “N-[2-(5-Chloro-3-oxo-2-(3,3,3-trifluoropropyl)-2,3-dihydro-1H-isoindol-1-yl)acetyl]-guanidine and N-[2-(6-chloro-3-oxo-2-(3,3,3-trifluoropropyl)-2,3-dihydro-1H-isoindol-1-yl)acetyl]quanidine [Example 26]”, for which the IC50 stood at 8.6 nM.
Take `NC(N)=NC(=O)CC1c2cc(C(F)(F)F)ccc2C(=O)N1CC1CC1` (single isomer, unassigned) [Example 38b]: the 50% inhibitory concentration (IC50) is 5 nM.
Next, `[H]/N=C(\N)NC(=O)CC1c2cc(Cl)c(Cl)cc2C(=O)N1CCC(F)(F)F` (stereo not shown) [Example 41a, N-{2-[5,6-Dichloro-3-oxo-2-(3,3,3-trifluoro-propyl)-2,3-dihydro-1H-isoindol-1-yl]-acetyl}-guanidine acetate]: 3 nM; “N-[2-(5-Chloro-2-isobutyl-3-oxo-2,3-dihydro-1H-isoindol-1-yl)acetyl]guanidine and N-[(6-Chloro-2-isobutyl-3-oxo-2,3-dihydro-1H-isoindol-1-yl)acetyl]guanidine [Example 12]”: 7 nM; `NC(N)=NC(=O)CC1c2ccc(Cl)cc2C(=O)N1CCCC(F)(F)F` (single isomer, unassigned) [Example 54a]: 944 nM.
The value for `NC(N)=NC(=O)CC1c2cc(Cl)c(Cl)cc2C(=O)N1CC(F)(F)F` (stereo not shown) [Example 44a, N-{2-[5,6-Dichloro-3-oxo-2-(2,2,2-trifluoro-ethyl)-2,3-dihydro-1H-isoindol-1-yl]-acetyl}-guanidine acetate] was 2 nM; that for `[H]/N=C(\N)NC(=O)CC1c2cc(S(C)(=O)=O)ccc2C(=O)N1CC(F)(F)F` (single isomer, unassigned) [Example 36a] was 524 nM; that for `NC(N)=NC(=O)CC1c2cc(Cl)ccc2C(=O)N1CC1CC1` (single isomer, unassigned) [Example 55b] was 20 nM.
Next, `[H]/N=C(\N)NC(=O)CC1c2cc(Cl)c(Cl)cc2C(=O)N1CCC(F)(F)F` (single isomer, unassigned) [Example 41b]: 41 nM.
Consider `[H]/N=C(\N)NC(=O)CC1c2cc(Cl)c(Cl)cc2C(=O)N1CCC(F)(F)F` (single isomer, unassigned) [Example 41c], for which the half-maximal inhibitory concentration (IC50) came out at 19 nM.
With `NC(N)=NC(=O)CC1c2cc(F)c(F)cc2C(=O)N1CC(F)(F)F` (stereo not shown) [Example 45, N-{2-[5,6-Difluoro-3-oxo-2-(2,2,2-trifluoro-ethyl)-2,3-dihydro-1H-isoindol-1-yl]-acetyl}-guanidine], the 50% inhibitory concentration (IC50) worked out at 212 nM.
For `N=C(N)NC(=O)CC1c2cc(F)c(F)cc2C(=O)N1CCC(F)(F)F` (single isomer, unassigned) [Example 40a], the half-maximal inhibitory concentration (IC50) turned out to be 263 nM.
On to `N=C(N)NC(=O)CC1c2cc(F)c(F)cc2C(=O)N1CCC(F)(F)F` (single isomer, unassigned) [Example 40b], for which the IC50 is 63 nM.
“N-[2-(3-Oxo-5-trifluoromethyl-2-(3,3,3-trifluoropropyl)-2,3-dihydro-1H-isoindol-1-yl)-acetyl]guanidine and N-[2-(3-oxo-6-trifluoromethyl-2-(3,3,3-trifluoropropyl)-2,3-dihydro-1H-isoindol-1-yl)acetyl]guanidine [Example 27]”: the IC50 is 22 nM.
The value for `NC(N)=NC(=O)CC1c2cc(C(F)(F)F)ccc2C(=O)N1CC(F)(F)F` (single isomer, unassigned) [Example 46a] was 19 nM; that for `NC(N)=NC(=O)CC1c2ccc(Cl)cc2C(=O)N1CCC(F)(F)F` (single isomer, unassigned) [Example 50a] was 9 nM.
`[H]/N=C(\N)NC(=O)CC1c2cc(Cl)c(Cl)cc2C(=O)N1CC1CC1` (racemic) [Example 42, (R)-N-[2-(5,6-Dichloro-2-cyclopropylmethyl-3-oxo-2,3-dihydro-1H-isoindol-1-yl)-acetyl]-guanidine and (S)-N-[2-(5,6-Dichloro-2-cyclopropylmethyl-3-oxo-2,3-dihydro-1H-isoindol-1-yl)-acetyl]-guanidine]: the IC50 came to 18 nM.
As to `NC(N)=NC(=O)CC1c2ccc(C(F)(F)F)cc2C(=O)N1CCC(F)(F)F` (single isomer, unassigned) [Example 52b], the IC50 was determined as 671 nM.
Next, “N-[2-(5-Chloro-3-oxo-2-(4,4,4-trifluorobutyl)-2,3-dihydro-1H-isoindol-1-yl)acetyl]-guanidine and N-[2-(6-chloro-3-oxo-2-(4,4,4-trifluorobutyl)-2,3-dihydro-1H-isoindol-1yl)acetyl]guanidine [Example 28]”: 88 nM; `NC(N)=NC(=O)CC1c2cc(Cl)c(Cl)cc2C(=O)N1CC(F)(F)F` (single isomer, unassigned) [Example 44c]: 260 nM; “N-[2-(5-Chloro-3-oxo-2-(2,2,2-trifluoroethyl)-2,3-dihydro-1H-isoindol-1-yl)acetyl]-guanidine and N-[2-(6-chloro-3-oxo-2-(2,2,2-trifluoroethyl )-2,3-dihydro-1H-isoindol-1yl)acetyl]quanidine [Example 23]”: 35 nM.
Take `[H]/N=C(\N)NC(=O)CC1c2cc(S(C)(=O)=O)ccc2C(=O)N1CC1CC1` (stereo not shown) [Example 37, N-[2-(2-Cyclopropylmethyl-6-methanesulfonyl-3-oxo-2,3-dihydro-1H-isoindol-1-yl)acetyl]-guanidinium acetate]: the IC50 stood at 188 nM.
Regarding `CC(C)N1C(=O)c2ccccc2C1CC(=O)N=C(N)N` (stereo not shown) [Example 7, N-[2-(2-Isopropyl-3-oxo-2,3-dihydro-1H-isoindol-1-yl)acetyl]guanidine], the IC50 was 116 nM.
Turning to `NC(N)=NC(=O)CC1c2ccc(C(F)(F)F)cc2C(=O)N1CC(F)(F)F` (single isomer, unassigned) [Example 47a], the IC50 worked out at 70 nM.
In the case of `CC(C)CN1C(=O)c2cccc(F)c2C1CC(=O)N=C(N)N` (stereo not shown) [Example 17, N-[2-(7-Fluoro-2-isobutyl-3-oxo-2,3-dihydro-1H-isoindol-1-yl)acetyl]guanidine], the IC50 amounted to 43 nM.
Next, `NC(N)=NC(=O)CC1c2cc(Cl)c(Cl)cc2C(=O)N1C1CC1` (single isomer, unassigned) [Example 43a]: 53 nM.
